Assays:
[1] = tested on: HCT116 human colon cancer cells; assay: Cancer cell proliferation inhibition (MTT assay), HCT116; format: cell-based; settings: Homo sapiens, HCT-116, 72 h incubation, mean ± SD of at least three independent experiments
Protocol: (§1) The following cell lines were used for the screening stage, obtained from American Type Culture Collection (ATCC, Manassas, VA, USA); HCT116 human colon cancer cells and A549 human lung carcinoma cell lines were cultured in RPMI 1640 medium supplemented with 10% FBS. Cell cultures were maintained in a humidified atmosphere of 5% CO2 at 37 °C. Cells were seeded at 2000 cells per well in 96-well plates in a volume of 200 μL per well. The test compounds were dissolved in DMSO and diluted with culture medium to different concentrations. After seeding for 24 h, the medium was removed, and […] of the test compound solution was added in duplicates and incubation continued for 72 h at 37 °C in a humidified atmosphere containing 5% CO2. Control cells were treated with vehicle alone. During the last 4 h of incubation, the cells were exposed to tetrazolium dye (MTT) solution (5 mg/mL, […] per well). The generated formazan crystals were dissolved in […] of dimethyl sulfoxide (DMSO), and the absorbance was read spectrophotometrically at 570 nm using an enzyme-linked immunosorbent assay plate reader. The data was calculated using Graph Pad Prism version 5.0 (GraphPad Softwrae, La Jolla, CA, USA). The IC50s were fitted using a non-linear regression model with a sigmoidal dose response.

[2] = tested on: A549 human lung carcinoma cell lines; assay: Cancer cell proliferation inhibition (MTT assay), A549; format: cell-based
Protocol: as §1

[3] = Liver microsomes metabolic stability, mouse
[4] = Liver microsomes metabolic stability, rat
[5] = Liver microsomes metabolic stability, human
[6] = dose of 4 mg/kg; cited from earlier work
Protocol: Further in vivo antitumor activities of 1a was evaluated in A549 xenograft models in mice via tail vein intravenous injection for 22 days. […] Considering of that, the maximum dose of 1a was chosen as 5 mg/kg. […] However, compound 1a could not achieve effective inhibition at all the dose levels (Figure 3b). TZT-1027 (2 mg/kg/day) inhibited tumor growth by 61% over the 22-day administration schedule, howe ... || In summary, we described the design and synthesis of nine TZT-1027 analogues based on the conformation restriction strategy. 3-Aryl-zetidines were used to replace the phenylethyl group at C-terminus. Two human cancer cell lines (A549, HCT116) were used to evaluate the potency of the synthesized compounds. […] Compound 1a could not achieve effective inhibition in A549 xenograft models at different dose levels.

Human A549 xenograft = assay: In vivo efficacy study, A549 xenograft model; design: species or system BALB/c athymic mice; settings: 2 mg/kg iv once a day; for Tumor volume: n = 6, mean (SD on next line); for Relative tumor volume: RTV = Vt/V0, n = 6, mean ± SD
Description: Pathogen-free, 4–6 week-old, female BALB/c athymic mice (Shanghai SCXK Laboratory Animal Technology Co. Ltd., Shanghai, China) were housed under sterile conditions. Human A549 xenograft was established in the right flanks of athymic mice according to the protocol of the National Cancer Institute. When the tumor reached a volume of 100 mm^3, the mice were randomly assigned into control (n = 6 per group) and treatment groups (n = 6 per group). Control group were given lactate buffer, and treatment groups were iv administered with tested compounds. The size of tumor was measured individually on the indicated days. Tumor volume (V) was calculated as V = (length × width^2)/2. The individual relative tumor volume (RTV) was calculated as follows: RTV = Vt/V0, where Vt represented the last tumor size measurement and V0 represented the pre-dosing tumor size measurement. The animal experimental protocols were approved by the Animal Ethics Committee of School of Pharmacy, Fudan University and the mice were treated in accordance with international animal ethics guidelines.

## CC(=O)O[C@@]12CO[C@@H]1C[C@H](O)[C@@]1(C)C(=O)[C@H](O)C3=C(C)[C@@H](OC(=O)[C@H](O)[C@@H](NC(=O)OC(C)(C)C)c4ccccc4)C[C@@](O)([C@@H](OC(=O)c4ccccc4)[C@H]21)C3(C)C [Docetaxel, reference compound]
[1]
  IC50: 0.0003 ± 0.0001 µM
[2]; Homo sapiens, A549, MTT assay, 72 h incubation, mean ± SD of at least three independent experiments
  IC50: 0.0235 ± 0.0095 µM

## O=C(c1ccc(F)cc1)C1CCN(CCn2c(=O)[nH]c3ccccc3c2=O)CC1 [Ketanserin, ketanserin, reference compound]
[3]; Mouse, apparent intrinsic clearance, 1 μM
  Clint: 402.92 mL/min/kg
[3]; mouse, liver microsomes
  half-life at 1 μM: 13.5 min
[4]; Rat, apparent intrinsic clearance, 1 μM
  Clint: 159.00 mL/min/kg
[4]; rat, liver microsomes
  half-life at 1 μM: 15.6 min
[5]; Human, apparent intrinsic clearance, 1 μM
  Clint: 39.63 mL/min/kg
[5]; human, liver microsomes
  half-life at 1 μM: 43.9 min

## CC[C@H](C)[C@@H]([C@@H](CC(=O)N1CCC[C@H]1[C@H](OC)[C@@H](C)C(=O)NCCc1ccccc1)OC)N(C)C(=O)[C@@H](NC(=O)[C@H](C(C)C)N(C)C)C(C)C [TZT-1027]
[6]
  toxicity of a dose: seemed to be toxic
Human A549 xenograft; day 1
  Tumor volume: 147.31 mm3
Human A549 xenograft; day 4
  Tumor volume: 182.59 mm3
Human A549 xenograft; day 7
  Relative tumor volume: 1.48 ± 0.64
  Tumor volume: 196.64 mm3
Human A549 xenograft; day 10
  Relative tumor volume: 1.73 ± 0.78
  Tumor volume: 232.81 mm3
Human A549 xenograft; day 13
  Relative tumor volume: 2.09 ± 0.9
  Tumor volume: 275.81 mm3
Human A549 xenograft; day 16
  Relative tumor volume: 2.3 ± 0.9
  Tumor volume: 301.7 mm3
Human A549 xenograft; day 19
  Relative tumor volume: 2.6 ± 1.33
  Tumor volume: 346.59 mm3
Human A549 xenograft; day 22
  Relative tumor volume: 2.66 ± 1.11
  Tumor volume: 363.71 mm3

## CC[C@H](C)[C@@H]([C@@H](CC(=O)N1CCC[C@H]1[C@H](OC)[C@@H](C)C(=O)N1CC(c2ccccc2C(C)C)C1)OC)N(C)C(=O)[C@@H](NC(=O)[C@@H](C(C)C)N(C)C)C(C)C [1d, (S)-2-((R)-2-(Dimethylamino)-3-methylbutanamido)-N-((3R,4S,5S)-1-((S)-2-((1R,2R)-3-(3-(2-isopropylphenyl)azetidin-1-yl)-1-methoxy-2-methyl-3-oxopropyl)pyrrolidin-1-yl)-3-methoxy-5-methyl-1-oxoheptan-4-yl)-N,3-dimethylbutanamide]
[2]; substituted phenyl analogues compared with 1a
  loss of potency against A549 cell lines: about 60 fold
